{"source": "paper PMC4987650", "about": "“Structural Investigation of Park’s Nucleotide on Bacterial Translocase MraY: Discovery of Unexpected MraY Inhibitors” (Scientific Reports, 2016)", "assay_type_in_all_cases": "biochemical", "key": {"MraYBS K226A mutant [1]": {"target": "T1, MraYBS K226A mutant (Bacillus subtilis, UniProt Q03521, K226A)", "T1 construct": "MBP; made in house", "experiment": "HPLC-based MraY functional assay, mutant MraY", "conditions": "consumption of 6 in one-hour reaction", "protocol": "The purified MraY from Bacillus subtilis was prepared as described in our previous reports. For 5 and 7–10, the reaction mixture containing MraYBS (10 μg/mL), C55P (200 μM) in 40 μL reaction buffer (30 mM Tris, 10 mM MgCl2, 10 mM NaCl, 0.1 mM Tween-20, 2.5% DMSO, pH 8.0) were pre-incubated at 37 °C for 15 min. The reactions were initiated by the addition of Park’s nucleotide analogues (10 μM) and incubated at 37 °C for 1 h. The reaction mixtures were added by uridine (0.01 mg/mL) as the internal standard and heated to 100 °C to stop the transferring reaction. The samples were analyzed by RP-C18 HPLC with gradient elution of 0.25 M NH4HCO3(aq)/15% MeOH in water (100:0 to 0:100) at a flow rate of 1 mL/min over 45 min, and the peaks of substrates were monitored at UV 260 nm. […] The reaction mixtures were heated to 100 °C to stop the transferring reaction, and samples were analyzed by an anion-exchange column (SAX1, Supelco Co., 5 μm, 4.6 × 250 mm) with a linear gradient elution of NH4OAc (20 mM to 1 M in MeOH) at a flow rate of 1.0 mL/min over 30 min. The fluorescent substrates were monitored with λex 466 nm/λem 535 nm by fluorescence detector. […]"}, "MraYBS K226A mutant [2]": {"target": "T1, MraYBS K226A mutant", "experiment": "Fluorescent enhancement assay, mutant MraY", "conditions": "6 as the substrate", "protocol": "(§1) Site–directed mutagenesis of MraY. Site-directed mutagenesis of the B. subtilis MBP-tagged MraY enzyme was performed directly on the pMAL -BS-MraY-16 expression plasmid by using the “Quickchanged XL Site-Directed Mutagenesis Kit ’’ from stratagene and the oligonucleotides shown below. Mutations introduced in the mraY gene sequence were checked by DNA sequencing. […]\n(§2) MraY-T51A-R 5’-[…]-3’\n(§3) T53A MraY-T53A-F 5’-[…]-3’\n(§4) MraY-T53A-R 5’-[…]-3’\n(§5) K102A MraY-K102A-F 5’-[…]-3’\n(§6) MraY-K102A-R 5’-[…]-3’\n(§7) K226A Mray-K226A-F 5’-[…]-3’ […]\n(§8) F228A MraY-F228A-F 5’-[…]-3’\n(§9) MraY-F228A-R 5’-[…]-3’\n(§10) Q271A Mray-Q271A-F 5’-[…]-3’\n(§11) Mray-Q271A-R 5’-[…]-3’\n(§12) R281A MraY-R281A-F 5’-[…]-3’\n(§13) MraY-R281A-R 5’-[…]-3’\n(§14) W297A MraY-W297A-F 5’-[…]-3’\n(§15) MraY-W297A-R 5’-[…]-3’\n(§16) Determine kinetic parameters by MraY fluorescence enhancement assay. The fluorescence enhancement assay was performed in 384-well plate as described by Bugg et al. with slight modifications.5 The reaction mixture containing MraYBS (10 μg/mL), C55P (200 μM) in 30 μL reaction buffer (30 mM Tris, 10 mM MgCl2, 10 mM NaCl, 0.1 mM Tween-20, 2.5% DMSO, pH 8.0) were pre-incubated at 37 °C for 15 min. The reactions were initiated by the addition of various concentrations of NBD-Park’s nucleotide 6 (0 to 160 μM). For inhibition study, a various concentrations of inhibitors were added before the addition of substrate 6. The continuous fluorescence increase over 60 min was monitored with λex 466 nm/λem 535 nm by fluorescence microplate reader (SpectraMax M5, Molecular Devices, LLC) at 37 °C. Linear regressions of increased fluorescent units (FLU) versus time (min) were used to calculate the initial velocities for each reaction. The kinetic parameters values (Ki, KM, and Vmax) were obtained by nonlinear regression analysis using the […] equation with the GraphPad Prism program (GraphPad Software, San\n(§17) (1 picture or pasted object on this page, not shown here)"}, "MraYBS Q271A mutant": {"target": "T2, MraYBS Q271A mutant (Bacillus subtilis, UniProt Q03521, Q271A)", "T2 construct": "MBP; made in house", "experiment": "Fluorescent enhancement assay, mutant MraY", "conditions": "6 as the substrate", "protocol": "as §1, §2, §3, §4, §5, §6, §7, §8, §9, §10, §11, §12, §13, §14, §15, §16, §17"}, "MraYBS T51A mutant": {"target": "T3, MraYBS T51A mutant (Bacillus subtilis, UniProt Q03521, T51A)", "T3 construct": "MBP; made in house", "experiment": "Fluorescent enhancement assay, mutant MraY", "conditions": "6 as the substrate", "protocol": "as §1, §2, §3, §4, §5, §6, §7, §8, §9, §10, §11, §12, §13, §14, §15, §16, §17"}, "MraYBS K102A mutant": {"target": "T4, MraYBS K102A mutant (Bacillus subtilis, UniProt Q03521, K102A)", "T4 construct": "MBP; made in house", "experiment": "Fluorescent enhancement assay, mutant MraY", "conditions": "6 as the substrate", "protocol": "as §1, §2, §3, §4, §5, §6, §7, §8, §9, §10, §11, §12, §13, §14, §15, §16, §17"}, "MraYBS T53A mutant": {"target": "T5, MraYBS T53A mutant (Bacillus subtilis, UniProt Q03521, T53A)", "T5 construct": "MBP; made in house", "experiment": "Fluorescent enhancement assay, mutant MraY", "conditions": "6 as the substrate", "protocol": "as §1, §2, §3, §4, §5, §6, §7, §8, §9, §10, §11, §12, §13, §14, §15, §16, §17"}, "MraYBS W297A mutant": {"target": "T6, MraYBS W297A mutant (Bacillus subtilis, UniProt Q03521, W297A)", "T6 construct": "MBP; made in house", "experiment": "Fluorescent enhancement assay, mutant MraY", "conditions": "6 as the substrate", "protocol": "as §1, §2, §3, §4, §5, §6, §7, §8, §9, §10, §11, §12, §13, §14, §15, §16, §17"}, "MraYBS R281A mutant": {"target": "T7, MraYBS R281A mutant (Bacillus subtilis, UniProt Q03521, R281A)", "T7 construct": "MBP; made in house", "experiment": "Fluorescent enhancement assay, mutant MraY", "conditions": "6 as the substrate", "protocol": "as §1, §2, §3, §4, §5, §6, §7, §8, §9, §10, §11, §12, §13, §14, §15, §16, §17"}, "MraYBS F228A mutant": {"target": "T8, MraYBS F228A mutant (Bacillus subtilis, UniProt Q03521, F228A)", "T8 construct": "MBP; made in house", "experiment": "Fluorescent enhancement assay, mutant MraY", "conditions": "6 as the substrate", "protocol": "as §1, §2, §3, §4, §5, §6, §7, §8, §9, §10, §11, §12, §13, §14, §15, §16, §17"}, "MraYBS": {"target": "T9, MraYBS (Bacillus subtilis, UniProt Q03521)", "T9 construct": "MBP; made in house", "T9 sequence (Q03521 1-324)": "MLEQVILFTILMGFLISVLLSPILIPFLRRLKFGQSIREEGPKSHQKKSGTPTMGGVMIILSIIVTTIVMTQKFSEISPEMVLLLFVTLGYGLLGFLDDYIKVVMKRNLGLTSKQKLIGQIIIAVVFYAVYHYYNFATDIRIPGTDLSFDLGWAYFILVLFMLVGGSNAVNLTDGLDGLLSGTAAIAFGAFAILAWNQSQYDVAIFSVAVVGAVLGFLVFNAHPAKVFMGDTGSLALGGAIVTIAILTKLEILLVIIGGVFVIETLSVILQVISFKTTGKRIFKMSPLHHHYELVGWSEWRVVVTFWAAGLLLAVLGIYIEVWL", "experiment": "MraY fluorescence enhancement assay (kinetics, inhibition)", "conditions": "WT MraYBS, 6 as the substrate", "protocol": "as §16"}}, "data": [{"smiles": "CC(=O)N[C@H]1[C@@H](OP(=O)(O)OP(=O)(O)OC[C@H]2O[C@@H](n3ccc(=O)[nH]c3=O)[C@H](O)[C@@H]2O)O[C@H](CO)[C@@H](O)[C@@H]1O[C@H](C)C(=O)N[C@@H](C)C(=O)N[C@H](CCC(=O)N[C@@H](CCCCNC(=O)CCCCCNc1ccc([N+](=O)[O-])c2nonc12)C(=O)N[C@H](C)C(=O)N[C@H](C)C(=O)O)C(=O)O", "note": "[Compound 6, NBD-Park’s nucleotide]", "values": [{"measurement": "Relative activity", "setting": "MraYBS K226A mutant [1]", "value": 100, "unit": "%"}, {"measurement": "Vmax", "setting": "MraYBS K226A mutant [2]", "value": "23 ± 4.7", "unit": "FLU/min"}, {"measurement": "Vmax", "setting": "MraYBS Q271A mutant", "value": "6 ± 1.7", "unit": "FLU/min"}, {"measurement": "Vmax", "setting": "MraYBS T51A mutant", "value": "5 ± 0.2", "unit": "FLU/min"}, {"measurement": "Vmax", "setting": "MraYBS K102A mutant", "value": "5 ± 0.2", "unit": "FLU/min"}, {"measurement": "Vmax", "setting": "MraYBS T53A mutant", "value": "7 ± 0.8", "unit": "FLU/min"}, {"measurement": "Vmax", "setting": "MraYBS W297A mutant", "value": "4 ± 0.4", "unit": "FLU/min"}, {"measurement": "Vmax", "setting": "MraYBS R281A mutant", "value": "10 ± 1.4", "unit": "FLU/min"}, {"measurement": "Vmax", "setting": "MraYBS F228A mutant", "value": "10 ± 1.5", "unit": "FLU/min"}, {"measurement": "Vmax", "setting": "MraYBS", "value": "18 ± 0.8", "unit": "FLU/min"}]}]}
